From patent US20230027929A1, “MrgprX2 Antagonists and Uses Thereof” (Dermira, Inc., priority 2019, published 2023)

Biological target: T1, hMrgpMRGPRX2 (Homo sapiens, UniProt Q96LB1)
T1 construct: expressed in transfected cells
T1 sequence (Q96LB1 1-330): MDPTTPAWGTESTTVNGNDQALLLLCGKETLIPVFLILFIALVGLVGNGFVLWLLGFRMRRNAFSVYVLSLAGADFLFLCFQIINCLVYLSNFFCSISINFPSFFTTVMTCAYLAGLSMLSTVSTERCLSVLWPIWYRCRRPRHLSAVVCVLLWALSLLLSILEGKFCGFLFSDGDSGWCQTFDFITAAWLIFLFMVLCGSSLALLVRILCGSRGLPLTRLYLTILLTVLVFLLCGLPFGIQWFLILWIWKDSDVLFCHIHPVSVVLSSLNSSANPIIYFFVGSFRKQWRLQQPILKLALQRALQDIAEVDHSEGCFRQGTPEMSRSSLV
Assay: FLIPR intracellular calcium mobilization, antagonist activity in recombinant hMrgpMRGPRX2 expressing cells
Format: cell-based
Settings: read-out: Human MrgprX2 Antagonist pIC50 (converted)
Procedure, shortened: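 Antagonist activity was read as inhibition of intracellular calcium mobilization (FLIPR) in recombinant cells expressing human MrgprX2. Potency was also checked in LAD-2 human mast cells with endogenous receptor, and orthologue activity in cells expressing mouse MrgprB2, mouse MrgprA1, and gerbil, Chinese hamster and cynomolgus orthologues.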

Compound	IC50 [nM]
CC1(C)C(C(=O)Nc2cc(C(=O)NCC(F)(F)F)ccn2)C1(C)C [Compound E269, 2-[(2,2,3,3-tetramethylcyclopropanecarbonyl)amino]-N-(2,2,2-trifluoroethyl)pyridine-4-carboxamide]	3160
CC1(C)C(C(=O)Nc2ccc(CN3CCCC3)cn2)C1(C)C [Compound E270, 2,2,3,3-tetramethyl-N-[5-(pyrrolidin-1-ylmethyl)-2-pyridyl]cyclopropanecarboxamide]	5250
CC1(C)C(C(=O)Nc2ccc(-c3ncon3)cn2)C1(C)C [Compound E271, 2,2,3,3-tetramethyl-N-[5-(1,2,4-oxadiazol-3-yl)-2-pyridyl]cyclopropanecarboxamide]	31.6
Cc1nc(-c2ccc(NC(=O)C3C(C)(C)C3(C)C)nc2)no1 [Compound E272, 2,2,3,3-tetramethyl-N-[5-(5-methyl-1,2,4-oxadiazol-3-yl)-2-pyridyl]cyclopropanecarboxamide]	8.51
CC1(C)C(C(=O)Nc2ccc(-c3cnco3)cn2)C1(C)C [Compound E273, 2,2,3,3-tetramethyl-N-(5-oxazol-5-yl-2-pyridyl)cyclopropanecarboxamide]	661
CC1(C)C(C(=O)Nc2ccc(-c3ccno3)cn2)C1(C)C [Compound E274, N-(5-isoxazol-5-yl-2-pyridyl)-2,2,3,3-tetramethyl-cyclopropanecarboxamide]	20.4
CC1(C)C(C(=O)Nc2ccc(-c3ccon3)cn2)C1(C)C [Compound E275, N-(5-isoxazol-3-yl-2-pyridyl)-2,2,3,3-tetramethyl-cyclopropanecarboxamide]	12.3
NS(=O)(=O)N1CCC[C@@H]1C(=O)Nc1ccc(Oc2ccc(F)c(F)c2)cn1 [Compound E277, (2R)-N-[5-(3,4-difluorophenoxy)-2-pyridyl]-1-sulfamoyl-pyrrolidine-2-carboxamide]	1910
CN1CCC[C@@H]1C(=O)Nc1ccc(Oc2ccc(F)c(F)c2)cn1 [Compound E278, (2R)-N-[5-(3,4-difluorophenoxy)-2-pyridyl]-1-methyl-pyrrolidine-2-carboxamide]	2630
NS(=O)(=O)N1CCC[C@@H]1C(=O)Nc1ccc(Oc2cc(F)cc(F)c2)cn1 [Compound E279]	240
NS(=O)(=O)N1CCC[C@@H]1C(=O)Nc1ccc(Oc2cc(F)ccc2F)cn1 [Compound E280]	589
C[C@]1(C(=O)Nc2ccc(Oc3cc(F)ccc3F)cn2)CCCN1S(N)(=O)=O [Compound E281]	81.3
C[C@]1(C(=O)Nc2ccc(Oc3cc(F)cc(F)c3)cn2)CCCN1S(N)(=O)=O [Compound E282]	27.5
NS(=O)(=O)N1CCC[C@H]1C(=O)Nc1ccc(Oc2cc(F)cc(F)c2)cn1 [Compound E283]	562
CC1(C)CC(=O)N(c2ccc(Oc3ccc(F)c(F)c3)cn2)C1 [Compound E284, 1-[5-(3,4-difluorophenoxy)-2-pyridyl]-4,4-dimethyl-pyrrolidin-2-one]	1780
CC1(C)CCN(c2ccc(Oc3ccc(F)c(F)c3)cn2)C1=O [Compound E285, 1-[5-(3,4-difluorophenoxy)-2-pyridyl]-3,3-dimethyl-pyrrolidin-2-one]	257
CC1(C)C(C(=O)Nc2ccc(Oc3cncc(F)c3)nn2)C1(C)C [Compound E288, N-[6-[(5-fluoro-3-pyridyl)oxy]pyridazin-3-yl]-2,2,3,3-tetramethyl-cyclopropanecarboxamide]	9120
CC1(C)C(C(=O)Nc2ccc(Oc3cncc(F)c3)cn2)C1(C)C [Compound E0530]	2

Second part, the compound after the results:

IC50 [nM]	Compound
8.51	CCN(C[C@@H](O)C(F)(F)F)C(=O)Nc1cnc(Oc2ccccc2F)cn1 [Compound E248]
1.62	CCN(C[C@@H](O)C(F)(F)F)C(=O)Nc1cnc(Oc2ccc(F)cc2F)cn1 [Compound E249]
2.57	CN(C[C@@](C)(O)C(F)(F)F)C(=O)Nc1cnc(Oc2cc(F)ccc2F)cn1 [Compound E250]
26.9	CCN(C[C@@H](O)C(F)(F)F)C(=O)Nc1cnc(Oc2cccc(F)c2C#N)cn1 [Compound E251]
589	CCN(C[C@@H](O)C(F)(F)F)C(=O)Nc1cnc(Oc2ccc(F)cc2)cn1 [Compound E252]
3.89	CN(C[C@@](C)(O)C(F)(F)F)C(=O)Nc1cnc(Oc2ccc(F)cc2F)cn1 [Compound E253]
30.9	CCN(C[C@@H](O)C(F)(F)F)C(=O)Nc1cnc(Oc2ccc(F)cc2C#N)cn1 [Compound E254]
13.2	CN(C[C@@H](O)C(F)(F)F)C(=O)Nc1cnc(Oc2ccc(F)cc2F)cn1 [Compound E255]
347	CCN(C[C@@H](O)C(F)(F)F)C(=O)Nc1cnc(Oc2ccc(C#N)cc2F)cn1 [Compound E256]
14.8	CCN(C[C@@H](O)C(F)(F)F)C(=O)Nc1cnc(Oc2ccc(Cl)cc2F)cn1 [Compound E257]
1.55	CCN(C[C@@](C)(O)C(F)(F)F)C(=O)Nc1cnc(Oc2ccc(F)cc2F)cn1 [Compound E258]
1.7	CCN(C[C@@](C)(O)C(F)(F)F)C(=O)Nc1cnc(Oc2cc(F)ccc2F)cn1 [Compound E259]
4.07	CCN(C[C@@H](O)C(F)(F)F)C(=O)Nc1cnc(Oc2ccc(F)cc2Cl)cn1 [Compound E260]
380	CCN(C[C@@H](OC)C(F)(F)F)C(=O)Nc1cnc(Oc2ccc(F)cc2F)cn1 [Compound E261]
676	CCN(C[C@@H](O)C(F)(F)F)C(=O)Nc1cnc(OCc2cccc(F)c2)cn1 [Compound E262]
24.5	CCN(C[C@@H](O)C(F)(F)F)C(=O)Nc1cnc(Oc2ccc(C)cc2F)cn1 [Compound E263]
295	CCN(C[C@@H](O)C(F)(F)F)C(=O)Nc1cnc(Oc2ccc(F)cc2C(F)(F)F)cn1 [Compound E264]
501	CC(C)C(=O)Nc1ccc(Cc2ccccc2F)cn1 [Compound E268]
501	CC(C)C(=O)Nc1ccc(Cc2cccc(F)c2)cn1 [Compound E276, N-[5-[(3-fluorophenyl)methyl]-2-pyridyl]-2-methyl-propanamide]
2290	CCN(C[C@@H](O)C(F)(F)F)S(=O)(=O)Nc1ccc(Oc2ccc(F)c(F)c2)cn1 [Compound E286, 5-(3,4-difluorophenoxy)-2-[[ethyl-[(2R)-3,3,3-trifluoro-2-hydroxy-propyl]sulfamoyl]amino]pyridine]
794	CC(C)C(=O)Nc1ncc(Oc2cccc(F)c2)cc1O [Compound E287, N-[5-(3-fluorophenoxy)-3-hydroxy-2-pyridyl]-2-methyl-propanamide]
724	CCN(C[C@@H](O)C(F)(F)F)C(=O)Nc1cc(Oc2ccc(F)c(F)c2)ncn1 [Compound E289, 3-[6-(3,4-difluorophenoxy)pyrimidin-4-yl]-1-ethyl-1-[(2R)-3,3,3-trifluoro-2-hydroxy-propyl]urea]
692	CCN(C[C@@H](O)C(F)(F)F)C(=O)Nc1cc(Oc2ccccc2F)ncn1 [Compound E290, 1-ethyl-3-[6-(2-fluorophenoxy)pyrimidin-4-yl]-1-[(2R)-3,3,3-trifluoro-2-hydroxy-propyl]urea]
891	CCN(C[C@@H](O)C(F)(F)F)C(=O)Nc1cc(Oc2cccc(F)c2)ncn1 [Compound E291, 1-ethyl-3-[6-(3-fluorophenoxy)pyrimidin-4-yl]-1-[(2R)-3,3,3-trifluoro-2-hydroxy-propyl]urea]
